Paper PMC6789589, “A Convenient Synthetic Method to Improve Immunogenicity of Mycobacterium tuberculosis Related T-Cell Epitope Peptides” (Vaccines, 2019)
Starred links: 1 amine or outer side, 2 acyl side, 3 side chain; linkers in the order of their positions; H or OH if unused. Positions of bridges follow the written chain, without caps; N, C: chain ends. Residues, ends and D or L forms follow the SMILES beside them. Chains are numbered I, II in the order given. *: point of attachment. X1 = O=C1CC([*:2])C(=O)N1CCCCCC(=O)[*:1]; Palmitoyl = CCCCCCCCCCCCCCCC(=O)*

Assays:
[1] = Water solubility (observation); format: physicochemical
[2] = test system: human erythrocyte suspension; test: Hemolytic activity assay on human erythrocyte suspension; format: cell-based; conditions: 2% (v/v) human erythrocyte suspension, 2 h, 37 °C, 0.05–100 µM
Description: The hemolytic activity of the compounds was measured on human erythrocyte suspension. Cytotoxicity was assayed on murine BMDM. These two experiments are detailed in the Supplementary Information.
The hemolytic activity of the compounds was assayed as described previously. Briefly, peripheral blood from healthy volunteers was collected in vacuum tubes containing heparin (Li-heparin LH, VenoSafe) as anticoagulant. Tubes were centrifuged (1000 g, 5 min) and the pellet was washed three times with RPMI-1640 (culturing medium without phenol red). RPMI medium was added to the pellet to yield a final 2% (v/v) RBC suspension. […]
0.5%). […] After centrifugation (1000 g, 5 min), 100 µL of the supernatant was transferred to a flat-bottom microtiter plate and absorbance was measured at 414 nm using an ELISA plate reader (iEMS Reader, Labsystems). The percentage hemolysis was compared to a hemolytic control peptide (CM15, 200 μM) treated RBC and the concentration of peptide at which 50% hemolysis occurred (HC50 value) was determined. Compounds were measured in triplicates.
The cytotoxic effect of the compounds was measured on murine BMDMs. […] The precipitated purple crystals were dissolved in 100 μL DMSO, and after 10 minutes agitation, the absorbance was determined at λ = 540 nm and 620 nm using an ELISA plate reader (iEMS Reader, Labsystems). […]
1 Determined on 2% (v/v) human erythrocyte suspension. […]

[3] = test system: antigen presenting cells; test: Time course of cellular uptake by flow cytometry; format: cell-based; conditions: incubation 15 min to 16 h, FITC-positive cells and mean fluorescence intensity (Figure 3c)
Description: To further analyze the internalization of the compounds, the time course of the cellular uptake rate was measured by flow cytometry. […] The internalization rate of pal-A(P)I conjugate was very fast.
Figure 3 Detailed study on the cellular uptake by antigen presenting cells and the time course of internalization. Fluorescence intensity of compound treated cells was analyzed by flow cytometry (a) with or without trypsinization, and (b) in the presence or absence of trypan blue. No significant differences were observed after eliminating the fluorescent signal from adsorbed peptides or conjugates. (c) To study the time course of internalization, different incubation periods (15 min, 1 h, 3 h, 6 h, and 16 h) were applied, and the intracellular fluorescence intensity was measured. (d) The viability of compound-treated cells was compared to untreated control cells, and relative viabilities are presented. The viability of the control cells was always > 85% (results are represented as mean ± SEM, n = 3).

[4] = test system: MM6 cells; test: Intracellular localization by confocal laser scanning microscopy; format: cell-based, human; conditions: Cf-labelled peptides, 60 min; P/A/I mix 5 µM, A(P)I 2.5 µM, pal-A(P)I 0.5 µM
Description: Cellular uptake and localization were visualized by confocal microscopy. MM6 cells were seeded (10^5 cells/well) one day prior to treatment on cover glass containing 24-well plates (Sarstedt, Nümbrecht, Germany). Lysosomes were stained by LysoTracker^TM Deep Red (Invitrogen, Carlsbad, CA, USA) for 30 min, followed by incubation with Cf-labeled peptides for 60 min. Subsequently, nuclei were stained by Hoechst 33342 solution (Thermo Scientific, Waltham, MA, USA). After each step, cells were washed three times with serum-free medium. Cells were fixed by 4% paraformaldehyde for 15 min and mounted to microscopy slides with Mowiol® 4–88. Imaging was performed on a Zeiss LSM 710 system with 40× oil immersion objective. Images were processed with ZEN lite software (Zeiss, Oberkochen, Germany).
Localization of the compounds was visualized by confocal laser scanning microscopy in MM6 cells (Figure 2c). Cells were incubated with Cf-labelled peptides for 60 min; moreover, nuclei and lysosomes were also stained. The peptide concentrations for P/A/I mix, A(P)I, and pal-A(P)I were 5, 2.5, and 0.5 µM, respectively. As different compound concentrations and laser intensities were also used to visualize the compounds showing low or high internalization, the presented images give information about the intracellular localization and are not to be considered in a quantitative manner.

[5] = test system: MonoMac6 human monocytes (MM6); test: Cellular uptake (internalization) by flow cytometry in MonoMac6; conditions: Cf-labelled compounds, MM6, 2.5 µM, 2 h, flow cytometry histograms (Figure S1)
Description: Internalization of the compounds was measured in the MonoMac6 (MM6) human monocytic cell line [31] and on murine bone marrow-derived macrophages (BMDMs). MonoMac6 cells were maintained as an adherent culture in RPMI-1640 supplemented with 10% heat-inactivated fetal calf serum (FCS) L-glutamine (2 mM) and gentamicin (35 μM) at 37 °C in a humidified atmosphere containing 5% CO2. […] For the assay, cells were treated with peptides at 2.5 µM final concentration and were incubated for 2 hours. After centrifugation (1000 rpm, 5 min) and washing with serum-free RPMI medium, supernatant was removed and 100 μL 0.25% trypsin was added to the cells. After 5 min incubation, 0.8 mL 10% FCS/HPMI medium was added, then cells were washed and re-suspended in 0.3 mL HPMI medium. The intracellular fluorescence intensity of the cells was measured on a BD LSR II flow cytometer (BD Biosciences, San Jose, CA, USA) on channel FITC (emission at λ = 505 nm) and data were analyzed with FACSDiva 5.0 software (BD Biosciences, San Jose, CA, USA). External fluorescence quenching was performed by adding 10 µL of 0.04% trypan blue solution. […]
treated with the compounds, then cells were analyzed by flow cytometry. To quantify viable cells, […]
negative control, RPMI medium was used (b) and the FITC-negative population was determined on this

| Structure (SMILES) | water solubility [1] | Hemolytic activity HC50 ± sd [2] | time course of internalization, in words [3] | intracellular localization [4] | percentage of FITC-positive cells [5] |
| --- | --- | --- | --- | --- | --- |
| CCCCCCCCCCCCCCCC(=O)N[C@@H](CCCCN)C(=O)N[C@@H](CC(C)C)C(=O)N[C@H](C(=O)N[C@@H](C)C(=O)N[C@@H](CC(N)=O)C(=O)N[C@@H](CC(N)=O)C(=O)N[C@H](C(=O)N[C@@H](CCCNC(=N)N)C(=O)N[C@@H](CC(C)C)C(=O)N[C@H](C(=O)N[C@@H](CCCCNC(=O)CCCCCN1C(=O)CC(SC[C@H](NC(=O)[C@H](C)NC(=O)[C@@H](NC(=O)[C@@H]2CCCN2C(=O)[C@@H](NC(=O)[C@@H](NC(=O)[C@H](CC(N)=O)NC(=O)[C@@H](NC(=O)CNC(=O)[C@H](Cc2ccccc2)NC(=O)[C@@H](N)Cc2ccccc2)[C@@H](C)CC)[C@@H](C)O)[C@@H](C)CC)[C@@H](C)CC)C(N)=O)C1=O)C(=O)N1CCC[C@H]1C(=O)N[C@@H](CCCCN)C(=O)NCC(=O)NCC(=O)N[C@@H](CC(C)C)C(=O)N[C@H](C(=O)N[C@@H](CC(=O)O)C(=O)N[C@H](C(=O)N[C@@H](C)C(=O)N1CCC[C@H]1C(=O)N[C@@H](Cc1c[nH]cn1)C(=O)N[C@@H](CCC(N)=O)C(=O)N[C@H](C(=O)N[C@@H](CO)C(=O)N[C@@H](CO)C(=O)N[C@H](C(N)=O)C(C)C)[C@@H](C)CC)[C@@H](C)CC)[C@@H](C)CC)[C@@H](C)O)[C@@H](C)O)C(C)C (some centres unmarked) [pal-A(P)I, palmitoyl-KLVANNTRL-TKmal(FFGINTIPIAC)PKG-GLIDIAPHQISSV] (I: Palmitoyl-KLVANNTRLTKPKGGLIDIAPHQISSV-NH2 / II: H-FFGINTIPIAC-NH2; linker I:11-II:11 via X1) | very low water solubility | > 100 µM |  |  |  |
| CC[C@H](C)[C@H](NC(=O)CNC(=O)[C@H](Cc1ccccc1)NC(=O)[C@@H](N)Cc1ccccc1)C(=O)N[C@@H](CC(N)=O)C(=O)N[C@H](C(=O)N[C@H](C(=O)N1CCC[C@H]1C(=O)N[C@H](C(=O)N[C@@H](C)C(=O)N[C@@H](CSC1CC(=O)N(CCCCCC(=O)NCCCC[C@H](NC(=O)[C@@H](NC(=O)[C@H](CC(C)C)NC(=O)[C@H](CCCNC(=N)N)NC(=O)[C@@H](NC(=O)[C@H](CC(N)=O)NC(=O)[C@H](CC(N)=O)NC(=O)[C@H](C)NC(=O)[C@@H](NC(=O)[C@H](CC(C)C)NC(=O)[C@H](CCCCN)NC(C)=O)C(C)C)[C@@H](C)O)[C@@H](C)O)C(=O)N2CCC[C@H]2C(=O)N[C@@H](CCCCN)C(=O)NCC(=O)NCC(=O)N[C@@H](CC(C)C)C(=O)N[C@H](C(=O)N[C@@H](CC(=O)O)C(=O)N[C@H](C(=O)N[C@@H](C)C(=O)N2CCC[C@H]2C(=O)N[C@@H](Cc2c[nH]cn2)C(=O)N[C@@H](CCC(N)=O)C(=O)N[C@H](C(=O)N[C@@H](CO)C(=O)N[C@@H](CO)C(=O)N[C@H](C(N)=O)C(C)C)[C@@H](C)CC)[C@@H](C)CC)[C@@H](C)CC)C1=O)C(N)=O)[C@@H](C)CC)[C@@H](C)CC)[C@@H](C)O (some centres unmarked) [A(P)I, KLVANNTRL-TKmal(FFGINTIPIAC)PKG-GLIDIAPHQISSV] (I: Ac-KLVANNTRLTKPKGGLIDIAPHQISSV-NH2 / II: H-FFGINTIPIAC-NH2; linker I:11-II:11 via X1; N-terminus and C-terminus assumed) |  |  | significantly slower than the internalization of pal-A(P)I | colocalization with lysosomes that was even more pronounced | 21.5% |
